In PubChem BioAssay AID1259411 (Chemical Carcinogenesis Research Information System (CCRIS), 2018) one finds carcinogen call data, which are given here for four compounds.

Calls of active or inactive are those of the source. The rule behind the calls is not given here.

This series deals with rodent carcinogenicity bioassays, tumor incidence. In words: CCRIS carcinogenicity studies. The procedure, abridged: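 NCI-built, expert-reviewed records of carcinogenicity and related test outcomes (mutagenicity, tumor promotion/inhibition) compiled from published and report sources, historical span 1985-2011, not updated.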

Take `c1ccc2c(c1)ccc1nc3ccc4ccccc4c3cc12`: the carcinogen call was “active; positive” (Species: MOUSE, Route: DERMAL, Tumor Site: Type of Lesion: INTEGUMENTARY SYSTEM (SKIN)); “active; positive” (Species: MOUSE, Route: SUBCUTANEOUS, Tumor Site: Type of Lesion: LUNG); “active; positive” (Species: MOUSE, Strain/Sex: HSD:ICR(BR)/FEMALE, Route: DERMAL, Dose: 0, 50 NMOL IN 50 µL ACETONE 2/WK FOR 99 WK (STUDY DURATION: 99 WK), Tumor Site: Type of Lesion: SKIN: TUMOR); “inactive; negative” (Species: RAT, Strain/Sex: OSBORNE-MENDEL/FEMALE, Route: LUNG IMPLANT, Dose: 0, 0.1, 0.3, 1.0 MG IN BEESWAX/TRICAPRYLIN (STUDY DURATION: LIFETIME), Dose: 0, 0.1, 0.3, 1.0 MG IN BEESWAX/TRICAPRYLIN (STUDY DURATION: LIFETIME)).

For `Cc1cc(Cl)ccc1OCC(=O)O`, the carcinogen call (Species: MOUSE, Strain/Sex: B6C3F1/FEMALE, Route: ORAL, Dose: 0, 20, 100, 500 PPM IN DIET FOR 104 WK (STUDY DURATION: 104 WK), Dose: 0, 20, 100, 500 PPM IN DIET FOR 104 WK (STUDY DURATION: 104 WK)) is “inactive; negative”; the carcinogen call (Species: MOUSE, Strain/Sex: B6C3F1/MALE, Route: ORAL, Dose: 0, 20, 100, 500 PPM IN DIET FOR 104 WK (STUDY DURATION: 104 WK), Dose: 0, 20, 100, 500 PPM IN DIET FOR 104 WK (STUDY DURATION: 104 WK)) was “inactive; negative”; the carcinogen call (Species: NEWT, Route: IMMERSION, Dose: 0, 100, 200, 400 PPM 4 D/WK FOR 12 MO (STUDY DURATION: 24 MO), Dose: 0, 100, 200, 400 PPM 4 D/WK FOR 12 MO (STUDY DURATION: 24 MO)) is “inactive; negative”; the carcinogen call (Species: RAT, Strain/Sex: WISTAR/FEMALE, Route: ORAL, Dose: 0, 20, 80, 320 PPM IN DIET FOR 104 WK (STUDY DURATION: 104 WK), Dose: 0, 20, 80, 320 PPM IN DIET FOR 104 WK (STUDY DURATION: 104 WK)) is “inactive; negative”; the carcinogen call (Species: RAT, Strain/Sex: WISTAR/MALE, Route: ORAL, Dose: 0, 20, 80, 320 PPM IN DIET FOR 104 WK (STUDY DURATION: 104 WK), Dose: 0, 20, 80, 320 PPM IN DIET FOR 104 WK (STUDY DURATION: 104 WK)) is “inactive; negative”.

`O=C(O)COc1ccc(Cl)cc1Cl`: the carcinogen call is, setting by setting: (Species: MOUSE, Strain/Sex: B6C3F1/FEMALE, Route: ORAL, Dose: 0, 5, 150, 300 MG/KG BW DAILY FOR 2 YR (STUDY DURATION: 2 YR), Dose: 0, 5, 150, 300 MG/KG BW DAILY FOR 2 YR (STUDY DURATION: 2 YR)) “inactive; negative”; (Species: MOUSE, Strain/Sex: B6C3F1/MALE, Route: ORAL, Dose: 0, 5, 62.5, 125 MG/KG BW DAILY FOR 2 YR (STUDY DURATION: 2 YR), Dose: 0, 5, 62.5, 125 MG/KG BW DAILY FOR 2 YR (STUDY DURATION: 2 YR)) “inactive; negative”; (Species: RAT, Strain/Sex: F344/FEMALE, Route: ORAL, Dose: 0, 5, 75, 150 MG/KG BW DAILY FOR 2 YR (STUDY DURATION: 2 YR), Dose: 0, 5, 75, 150 MG/KG BW DAILY FOR 2 YR (STUDY DURATION: 2 YR)) “inactive; negative”; (Species: RAT, Strain/Sex: F344/MALE, Route: ORAL, Dose: 0, 5, 75, 150 MG/KG BW DAILY FOR 2 YR (STUDY DURATION: 2 YR), Dose: 0, 5, 75, 150 MG/KG BW DAILY FOR 2 YR (STUDY DURATION: 2 YR)) “inactive; negative”.

In the case of `ClC[C@@H]1O[C@@H]1Cl`, the carcinogen call is “active; positive” (Species: MOUSE, Strain/Sex: ICR/FEMALE, Route: DERMAL, Dose: 10 MG IN 0.1 ML ACETONE 3/WK FOR LIFE, Tumor Site: Type of Lesion: INTEGUMENTARY SYSTEM (SKIN): PAPILLOMA, SQUAMOUS CELL CARCINOMA) and “active; positive” (Species: MOUSE, Strain/Sex: ICR/FEMALE, Route: SUBCUTANEOUS, Dose: 500 UG IN 0.05 ML TRICAPRYLIN 1/WK FOR LIFE, Tumor Site: Type of Lesion: INJECTION SITE: FIBROSARCOMA).
